This note sets out measurements from patent US9371292B2, “Quinazoline derivative, preparation method therefor, intermediate, composition and application thereof” (SHANGHAI PHARMACEUTICALS HOLDINGS CO., LTD., priority 2011, dated 2016).

The structures appear in SMILES notation.

The target of assay [1] is T1, EGFR tyrosine kinase (Homo sapiens, UniProt P00533).
T1 construct: purchased Sigma Aldrich
Briefly: HTRF assay, inhibition of EGFR tyrosine kinase. Type of assay: biochemical. To be noted: HTRF method. As for the experimental part: The activity of inhibitory against the kinase of the test compound is expressed by IC50. The assays are performed by Homogeneous time-resolved fluorescence (HTRF) method which is as follows: a series of synthesized analogues with gradient concentration are incubated for 5 minutes in enzymatic solution with specific concentration (for EGFR) at room temperature. Then proper amount of substrate and ATP are added into the reaction mixture to start the enzyme reaction. The assays of the specific concentration of compound is measured by Flexstation III of Molecular device company after the stop buffer and detecting liquid are added to the enzyme reaction system and hatch at room temperature for 1 hour. And the activity of inhibitory against the kinase of the test compound with different concentration will be calculated, then according to the 4-parameter equation, fit the inhibitory activity of the test compound with different concentration to get the IC50. EGFR is purchased from Sigma Aldrich. The HTRF KinEASE-TK is purchased from Cisbio Bioassays. ATP is purchased from Sigma Aldrich.
For orientation: Time-resolved FRET reads energy transfer from a long-lived donor to a nearby acceptor.

Assay [2] has as its system A431 cell. Briefly: Proliferation inhibition, A431 cells (CellTiter-Glo). To be noted: Homo sapiens, A-431, 48 hours. Type of assay: cell-based. As for the experimental part: (§1) This example is to determine the proliferation inhibitory activity against wide type of high expression cell lines A431 of EGFR and mutant cell lines NCI-H1975^L858RT790M, the proliferation inhibitory activity in cell-based level of compound is expressed by IC50. The test method is as follows: both cell lines are purchased from American type culture collection (ATCC). The cells are seeded in a white and opaque 384-well culture plate with a proper concentration (A431: 20000 cells/ml medium; H1975: 15000 cells/ml medium), cultured at 37° C. with 5% CO2 for 24 hrs, a series of medicine with gradient concentration is added, generally 10 concentrations, cultured for another 48 hours under the previous conditions. The assays of the proliferation inhibitory activity against the A431 and H1975 cell of the test compounds are performed by the CellTiter-Glo Luminescent Cell Viability Assay and calculate the proliferation inhibitory activity of compound with different concentrations. CellTiter-Glo Luminescent Cell Viability Assay is purchased from Promega. Fit the data of proliferation inhibitory activity against A431 and H1975 of compounds with different concentrations with 4-parameter equation.
In general terms: In ATP-based viability assays light output follows the ATP content of the culture.

Assay [3] has as its system NCI-H1975 L858R T790M cell. Briefly: Proliferation inhibition, H1975 cells (CellTiter-Glo). Type of assay: cell-based. To be noted: Homo sapiens, 48 hours. As for the experimental part:
as §1

T1 sequence (P00533 25-1210): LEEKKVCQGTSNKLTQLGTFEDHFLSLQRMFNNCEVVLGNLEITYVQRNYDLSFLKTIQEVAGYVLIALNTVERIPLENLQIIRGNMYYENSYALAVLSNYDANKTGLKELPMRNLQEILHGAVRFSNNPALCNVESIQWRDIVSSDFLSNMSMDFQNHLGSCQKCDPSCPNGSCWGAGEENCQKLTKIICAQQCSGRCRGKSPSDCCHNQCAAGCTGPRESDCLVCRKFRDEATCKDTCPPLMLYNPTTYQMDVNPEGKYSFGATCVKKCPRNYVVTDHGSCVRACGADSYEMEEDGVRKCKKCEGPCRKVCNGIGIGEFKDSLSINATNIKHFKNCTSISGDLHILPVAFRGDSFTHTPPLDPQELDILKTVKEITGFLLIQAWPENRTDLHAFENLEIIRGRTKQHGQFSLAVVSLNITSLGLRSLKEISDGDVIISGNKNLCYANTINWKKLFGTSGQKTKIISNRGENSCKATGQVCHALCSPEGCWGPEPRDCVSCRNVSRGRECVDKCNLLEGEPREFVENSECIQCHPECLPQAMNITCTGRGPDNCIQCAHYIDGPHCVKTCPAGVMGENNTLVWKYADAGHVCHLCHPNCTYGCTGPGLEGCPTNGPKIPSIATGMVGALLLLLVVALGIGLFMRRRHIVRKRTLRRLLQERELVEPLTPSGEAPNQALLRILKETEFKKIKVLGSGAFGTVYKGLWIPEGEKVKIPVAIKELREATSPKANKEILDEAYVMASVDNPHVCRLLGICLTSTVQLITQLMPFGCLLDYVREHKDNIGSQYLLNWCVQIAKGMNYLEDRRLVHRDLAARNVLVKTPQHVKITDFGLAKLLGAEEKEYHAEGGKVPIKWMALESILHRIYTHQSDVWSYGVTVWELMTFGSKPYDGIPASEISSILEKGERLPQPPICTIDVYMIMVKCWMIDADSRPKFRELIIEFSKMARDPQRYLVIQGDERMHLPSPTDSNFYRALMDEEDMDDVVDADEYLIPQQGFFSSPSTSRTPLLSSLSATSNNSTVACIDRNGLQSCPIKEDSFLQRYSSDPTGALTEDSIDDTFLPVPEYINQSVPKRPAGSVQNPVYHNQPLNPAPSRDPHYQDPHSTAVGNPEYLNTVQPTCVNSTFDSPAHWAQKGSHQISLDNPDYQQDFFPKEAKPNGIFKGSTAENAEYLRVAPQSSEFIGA

In general, IC50 refers to the midpoint of a concentration-inhibition curve. A lower IC50 goes with greater potency in that assay. For the molecule `C=C(F)C(=O)Nc1cc2c(Nc3ccc(F)c(Cl)c3F)ncnc2cc1OCC1CC1` [Compound 48, N-[4-(3-chloro-2,4-difluoro-phenylamino)-7-cyclopropylmethoxy-quinazolin-6-yl]-2-fluoro-acrylamide], the IC50 in assay [1] amounted to 0.65 nM; in assay [2], 13 µM; in assay [3] it was 1.8 µM.
In the case of `CCOc1cc2ncnc(Nc3ccc(OCc4ccccn4)c(Cl)c3)c2cc1NC(=O)/C(F)=C\CN(C)C` [Compound 19-2, (E)-N-(4-((3-chloro-4-(pyridin-2-ylmethoxy)phenyl)amino)-7-ethoxyquinazolin-6-yl)-4-(dimethylamino)-2-fluorobut-2-enamide], the IC50 amounted to 0.89 nM in assay [1] and 1.1 µM in assay [3].
On to `CN(C)C/C=C(\F)C(=O)Nc1cc2c(Nc3ccc(F)c(Cl)c3)ncnc2cc1O[C@H]1CCOC1` [Compound 21-1, (S,Z)-N-(4-((3-chloro-4-fluorophenyl)amino)-7-((tetrahydrofuran-3-yl)oxy)quinazolin-6-yl)-4-(dimethylamino)-2-fluorobut-2-enamide], for which the values for the IC50 in assay [1], in assay [2] and in assay [3] were 0.16 nM, 98 µM and 1.2 µM, respectively.
For `C=C(F)C(=O)Nc1cc2c(Nc3ccc(Cl)c(Cl)c3F)ncnc2cc1OCCCN1CCOCC1` [Compound 30, N-[4-(3,4-dichloro-2-fluoro-phenylamino)-7-(3-morpholin-4-yl-propoxy)-quinazolin-6-yl]-2-fluoro-acrylamide], in that order: 0.22 nM, 0.52 µM and 1.5 µM.
Take `C=C(F)C(=O)Nc1cc2c(Nc3ccc(OCc4cccc(F)c4)c(Cl)c3)ncnc2cc1OCCCN1CCOCC1` [Compound 29, N-[4-[3-chloro-4-(3-fluoro-benzyloxy)-phenylamino]-7-(3-morpholin-4-yl-propoxy)-quinazolin-6-yl]-2-fluoro-acrylamide]: the IC50 was determined as 3.3 nM in assay [1], 5.9 µM in assay [2] and 1.9 µM in assay [3].
Consider `C=C(F)C(=O)Nc1cc2c(Nc3cccc(Br)c3)ncnc2cc1OCCCN1CCOCC1` [Compound 28, N-[4-(3-bromo-phenylamino)-7-(3-morpholin-4-yl-propoxy)-quinazolin-6-yl]-2-fluoro-acrylamide], for which the IC50 was 0.32 nM in assay [1], 29 µM in assay [2] and 1.4 µM in assay [3].
On to `C=C(F)C(=O)Nc1cc2c(Nc3ccc(F)c(Cl)c3F)ncnc2cc1OCCCN1CCOCC1` [Compound 24, N-[4-(3-chloro-2,4-difluoro-phenylamino)-7-(3-morpholin-4-yl-propoxy)-quinazolin-6-yl]-2-fluoro-acrylamide], for which the IC50 stood at 0.19 nM in assay [1], 1.3 µM in assay [2] and 2.2 µM in assay [3].
As to `O=C(Nc1cc2c(Nc3ccc(F)c(Cl)c3)ncnc2cc1O[C@H]1CCOC1)/C(F)=C\CN1CCOCC1` [Compound 20-2, (S,E)-N-(4-((3-chloro-4-fluorophenyl)amino)-7-((tetrahydrofuran-3-yl)oxy)quinazolin-6-yl)-2-fluoro-4-morpholinobut-2-enamide], the IC50 in assay [2] is above 100 µM; in assay [3], 2.3 µM.
For the molecule `C=C(F)C(=O)Nc1cc2c(Nc3cccc(Br)c3)ncnc2cc1OCC` [Compound 53, N-[4-(3-bromo-phenylamino)-7-ethoxy-quinazolin-6-yl]-2-fluoro-acrylamide], the IC50 in assay [1] is 0.36 nM; in assay [2], 36 µM; in assay [3] it was 1 µM.
With `C=C(Cl)C(=O)Nc1cc2c(Nc3ccc(F)c(Cl)c3F)ncnc2cc1OCCCN1CCOCC1` [Compound 34, N-[4-(3-chloro-2,4-difluoro-phenylamino)-7-(3-morpholin-4-yl-propoxy)-quinazolin-6-yl]-2-chloro-acrylamide], the IC50 in assay [1] is 0.65 nM; in assay [2] it was above 100 µM; in assay [3], 5.2 µM.
As to `CCOc1cc2ncnc(Nc3ccc(OCc4ccccn4)c(Cl)c3)c2cc1NC(=O)/C(F)=C/CN(C)C` [Compound 19-1, (Z)-N-(4-((3-chloro-4-(pyridin-2-ylmethoxy)phenyl)amino)-7-ethoxyquinazolin-6-yl)-4-(dimethylamino)-2-fluorobut-2-enamide], in assay [1], the IC50 came to 0.57 nM.
For `COc1cc2ncnc(Nc3ccc(F)c(Cl)c3)c2cc1NC(=O)/C(F)=C\CN1CCOCC1` [Compound 22-2, (E)-N-(4-((3-chloro-4-fluorophenyl)amino)-7-methoxyquinazolin-6-yl)-2-fluoro-4-morpholinobut-2-enamide], the IC50 turned out to be 0.3 nM in assay [1], 2.9 µM in assay [2] and 2.4 µM in assay [3].
For `C=C(Cl)C(=O)Nc1cc2c(Nc3cccc(Br)c3)ncnc2cc1OCC` [Compound 59, N-[4-(3-bromo-phenylamino)-7-ethoxy-quinazolin-6-yl]-2-chloro-acrylamide], the IC50 amounted to 0.63 nM in assay [1], 10 µM in assay [2] and 11 µM in assay [3].
`C=C(F)C(=O)Nc1cc2c(Nc3ccc(F)c(Cl)c3)ncnc2cc1OCCCN(C)C` [Compound 42, N-[4-(3-chloro-4-fluoro-phenylamino)-7-(3-dimethylamino-propoxy)-quinazolin-6-yl]-2-fluoro-acrylamide]: the IC50 in assay [1] was 0.55 nM; in assay [2], 0.53 µM; in assay [3], 2.4 µM.
Regarding `C=C(F)C(=O)Nc1cc2c(Nc3ccc(Cl)c(OC)c3)ncnc2cc1OCCCN1CCOCC1` [Compound 37, N-[4-(4-chloro-3-methoxy-phenylamino)-7-(3-morpholin-4-yl-propoxy)-quinazolin-6-yl]-2-fluoro-acrylamide], the IC50 is 4.7 nM in assay [1], above 100 µM in assay [2] and 1.9 µM in assay [3].
Take `COc1cc2ncnc(Nc3ccc(F)c(Cl)c3)c2cc1NC(=O)/C(F)=C/CN1CCCCC1` [Compound 8-1, (Z)—N-(4-((3-chloro-4-fluorophenyl)amino)-7-methoxyquinazolin-6-yl)-2-fluoro-4-(piperidin-1-yl)but-2-enamide]: the IC50 in assay [3] is 1 µM.
As to `CN(C)C/C=C(/F)C(=O)Nc1cc2c(Nc3ccc(F)c(Cl)c3)ncnc2cc1O[C@H]1CCOC1` [Compound 21-2, (S,E)-N-(4-((3-chloro-4-fluorophenyl)amino)-7-((tetrahydrofuran-3-yl)oxy)quinazolin-6-yl)-4-(dimethylamino)-2-fluorobut-2-enamide], the IC50 in assay [1] amounted to 0.31 nM; in assay [2], 3.1 µM; in assay [3] it was 1.5 µM.
On to `C=C(F)C(=O)Nc1cc2c(Nc3ccc(Br)c(Cl)c3F)ncnc2cc1OCCCN1CCOCC1` [Compound 38, N-[4-(4-bromo-3-chloro-2-fluoro-phenylamino)-7-(3-morpholin-4-yl-propoxy)-quinazolin-6-yl]-2-fluoro-acrylamide], for which the IC50 in assay [1] was determined as 0.35 nM; in assay [2] it was 0.18 µM; in assay [3] it was 1.1 µM.
In the case of `C=C(Cl)C(=O)Nc1cc2c(Nc3ccc(F)c(Cl)c3)ncnc2cc1OCCCN1CCOCC1` [Compound 41, N-[4-(3-chloro-4-fluoro-phenylamino)-7-(3-morpholin-4-yl-propoxy)-quinazolin-6-yl]-2-chloro-acrylamide], in assay [1], the IC50 came to 0.37 nM.
In assay [2], `COc1cc2ncnc(Nc3ccc(F)c(Cl)c3)c2cc1NC(=O)/C(F)=C\CN1CCCCC1` [Compound 8-2, (E)-N-(4-((3-chloro-4-fluorophenyl)amino)-7-methoxyquinazolin-6-yl)-2-fluoro-4-(piperidin-1-yl)but-2-enamide] yielded an IC50 of 2.1 µM.
In assay [3], `C=C(F)C(=O)Nc1cc2c(Nc3cc(OC)c(Cl)cc3Cl)ncnc2cc1OCCCN1CCOCC1` [Compound 27, N-[4-(2,4-dichloro-5-methoxy-phenylamino)-7-(3-morpholin-4-yl-propoxy)-quinazolin-6-yl]-2-fluoro-acrylamide] had an IC50 of 2.7 µM.
For the molecule `O=C(Nc1cc2c(Nc3ccc(F)c(Cl)c3)ncnc2cc1O[C@H]1CCOC1)/C(F)=C/CN1CCOCC1` [Compound 20-1, (S,Z)-N-(4-((3-chloro-4-fluorophenyl)amino)-7-((tetrahydrofuran-3-yl)oxy)quinazolin-6-yl)-2-fluoro-4-morpholinobut-2-enamide], the results for the IC50 in assay [2] and in assay [3] were 12 µM and 4.3 µM, respectively.
For `C=C(F)C(=O)Nc1cc2c(Nc3ccc(F)c(Cl)c3)ncnc2cc1OC1CCN(C)CC1` [Compound 49, N-[4-(3-chloro-4-fluoro-phenylamino)-7-(1-methyl-piperidin-4-yloxy)-quinazolin-6-yl]-2-fluoro-acrylamide], in that order: 8.6 µM and 5.6 µM.
